Results: patent publication US20250382657A1, “METHODS FOR MAPPING BINDING SITES OF COMPOUNDS” (Cambridge Enterprise Limited, priority 2022, published 2025)
One block for each molecule: values may come before it.

Legend:
K562 cells = assay: Dox-bio1 Chemmap in Tucidinostat-treated K562 cells; format: cell-based, human; conditions: Tucidinostat 1 μM, 72 h
From the text: Mycoplasma-free human chronic myelogenous leukemia K562 cells (RRID:CVCL_0004) derived from a person were purchased from ATCC and cultured in RPMI 1640 (Gibco, 21875034) supplemented with 10% heat-inactivated fetal bovine serum (FBS, Gibco, A3840401). Human bone osteosarcoma epithelial U-2 OS cells (RRID:CVCL_0042) derived from a moderately differentiated sarcoma of the tibia of a person osteosarcoma were obtained from ATCC and cultured in DMEM (Gibco, 41966029) supplemented with 10% FBS. Both cell lines were grown in accordance with ENCODE cell culture protocols and periodically tested for mycoplasma contamination and identity confirmed by short tandem repeat (STR) typing. HDAC inhibitors (HDACi) were prepared at 10 mM as stock solution in DMSO. Cells were treated with HDACi dissolved to 1 μM final concentration or an equal concentration of vehicle (0.1% DMSO) for 72 hs.
Cell preparation. U-2 OS cells were detached using accutase and immediately quenched using complete culture media. U-2 OS and K562 suspension cells were harvested by centrifugation and fixed in 0.1% formaldehyde (Thermo Scientific, 28906) in PBS for 2 min at room temperature, followed by quenching with glycine to a final concentration of 75 mM. […]

BRD4 [1] = biological target: T1, BRD4 (Homo sapiens, UniProt O60885); assay: Chemmap genome-wide mapping of JQ1 binding sites, compared with BRD4 CUT&Tag; conditions: 150,000 K562 cells; JQ1-bio probe
T1 construct: U-2 OS and K562 suspension cells were harvested by centrifugation and fixed in 0.1% formaldehyde; endogenous in cells; host or cells: K562 (human leukaemia) and U-2 OS cells
Experimental: BRD4 CUT&Tag was performed as described before (H.S. Kaya-Okur, et al. Nat. Protoc., 15 (2020) e23641). Briefly, cells were incubated with activated concanavalin A-coated magnetic beads (Bangs Labs, BP531). The bead-bound cells were permeabilized and incubated with anti-BRD4 (E2A7X) rabbit antibody (Cell Signalling Technology, 13440), followed by rabbit anti-mouse IgG antibody (Antibodies-Online, ABIN101961, RRID:AB_10775589). Diluted pA-Tn5 adapter complex was then added followed by the tagmentation reaction. Extracted DNA fragments were used for library preparation and Illumina sequencing.

dsDNA = assay: FRET-melting assay; format: binding; conditions: 1 μM; negative control dsDNA; n=2
Experimental: 400 nM FAM-TAMRA dual-labelled oligonucleotides (Biomers) were annealed in assay buffer (60 mM potassium cacodylate, pH=7.4) at 95° C. for 5 min followed by gradually cooling to 20° C. A series of probe concentrations were prepared in a 8-well strip tube: 150 μL of 6 μM ligand in assay buffer was prepared as the initial concentration. Subsequent serial dilutions were made by adding 100 μL of probe solutions to 50 μL of assay buffer, resulting in 12 concentrations including a control (1% DMSO). 25 μL per solutions were transferred to 96-well plate, followed by adding 25 μL of annealed oligonucleotide solutions to each well. The plate was then sealed with an adhesive transparent cover and shaken gently for 10 min at room temperature. Measurements of restoring FAM signal were recorded on a Bio-Rad CFX96 Touch Real-Time PCR Detection System employing a temperature gradient from 25° C. to 95° C. at 0.5° C./min. Melting temperatures were determined by the first derivative maxima of relative fluorescence unit (RFU) value against […], and ΔTm was calculated by baseline correction of melting temperatures subtracting control group. A one-site binding model in GraphPad Prism 7 was utilised to fit FRET Tm curves. Mean was calculated from two replicates.

genomic DNA = assay: Chemmap genome-wide mapping of biotinylated doxorubicin binding sites; parameters: species or system human; conditions: K562 cells
Experimental: (§1) Cell preparation. U-2 OS cells were detached using accutase and immediately quenched using complete culture media. U-2 OS and K562 suspension cells were harvested by centrifugation and fixed in 0.1% formaldehyde (Thermo Scientific, 28906) in PBS for 2 min at room temperature, followed by quenching with glycine to a final concentration of 75 mM. Fixed cells were collected by centrifugation at 600×g for 4 min, followed by resuspension in cold wash buffer (20 mM HEPES pH7.5, 150 mM NaCl and 0.5 mM spermidine (Sigma, S0266)) in nuclease-free water supplemented with a complete Protease Inhibitor, EDTA-free (Sigma, 11873580001). (Note: For Chemmap of G4 ligands NaCl was replaced by equivalent concentrations of KCl in all buffers to maintain G4 stability. For optimal results, the concentration of cells needs to be adjusted based on target abundance and relative affinity of the probes. We employed cells at 1500 cells/μL (JQ1-bio) and 6000 cells/μL (G4 ligands and biotinylated doxorubicin))
Probe-1st Ab complex assembly. Compound stock solution in DMSO was diluted to 10 μM in antibody buffer (2 mM EDTA, 0.1% BSA (Sigma, A8577), 0.05% digitonin (EMD Millipore, 300410) in wash buffer). For 5 samples, 20 μL probe solution (10 μM) and 16.7 μL anti-biotin (D5A7) Rabbit mAb (Cell Signaling Technology, 5597, concentration is ˜10 μM) were added to 200 μL antibody buffer and incubated on ice for 1 h to perform a complex at high concentration (probe in excess 1.2:1 to avoid non-specific antibody binding). […]
Bead capture. For 5 samples, 50 μL (JQ1-bio) or 75 μL (G4 ligands and biotinylated Doxorubicin) concanavalin A beads (Bangs Labs, BP531) were washed twice in 1 mL binding buffer (20 mM HEPES pH 7.5, 10 mM KCl, 1 mM CaCl2, 1 mM MnCl2 in nuclease-free water) and resuspended in 75 μL binding buffer. 100 µL of cell suspension were incubated with 10 μL pre-washed concanavalin A beads at 25° C. for 10 min at 600 rpm. Beads-bound cells were gently washed twice with wash buffer, before resuspending in 100 μL probe-1st Ab solution and incubating at 4° C. overnight at 600 rpm.
2nd Ab-Tn5 transposome complexes assembly. For 5 samples, 2.5 μL 2nd Ab (Antibodies-Online, ABIN101961, RRID:AB_10775589) and 5 μL pA-Tn5 were added to 200 μL Dig-300 buffer (20 mM HEPES pH 7.5, 300 mM NaCl, 0.5 mM spermidine, 0.01% digitonin in nuclease-free water supplemented with Complete Protease Inhibitor, EDTA-free) and incubated on ice for 1 h. 300 μL antibody buffer were added to the 2nd-Tn5 complexes solution. (2nd Ab-Tn5 complexes at a ratio of 2:1).
Tagmentation. Cells were washed 3× with 500 μL Dig-wash buffer (0.05% digitonin in wash buffer) and resuspended in 100 μL 2nd Ab-Tn5 transposome solution and incubated at 25° C. for 1 h at 600 rpm. […]

BRD4 [2] = biological target: T1, BRD4; conditions: K562 cells; published data; cited from earlier work
DNA G-quadruplex [3] = assay: Chemmap genome-wide mapping of G4 ligand binding sites (PDS, PhenDC3); parameters: species or system human; conditions: K562 cells; biotinylated probes
Experimental: as §1
(§2) Probe-1st Ab complex assembly. Compound stock solution in DMSO was diluted to 10 μM in antibody buffer (2 mM EDTA, 0.1% BSA (Sigma, A8577), 0.05% digitonin (EMD Millipore, 300410) in wash buffer). […]

DNA G-quadruplex [4] = assay: PDS Chemmap after treatment of live K562 cells with unmodified PDS (competition); format: cell-based, human; conditions: unmodified PDS 4 μM for 3 hr
Experimental: as §1, §2

SMILES: Nc1cc(F)ccc1NC(=O)c1ccc(CNC(=O)/C=C/c2cccnc2)cc1 [Tucidinostat]
effect on doxorubicin binding (differential binding analysis) (K562 cells): enhances the binding of doxorubicin | Dox-bio1 binding sites within initial open chromatin region (K562 cells; 95% in vehicle group): 42%

JQ1 binding sites observed in each experiment (BRD4 [1]): around 10,000
SMILES: Cc1sc2c(c1C)C(c1ccc(Cl)cc1)=N[C@@H](CC(=O)NCCOCCOCCNC(=O)CCCC[C@@H]1SC[C@@H]3NC(=O)N[C@@H]31)c1nnc(C)n1-2 [JQ1-bio]

SMILES: NCCOc1cc(NC(=O)c2cc(OCCNC(=O)CCOCCOCCOCCOCCNC(=O)CCCC[C@@H]3SC[C@@H]4NC(=O)N[C@@H]43)cc(C(=O)Nc3cc(OCCN)c4ccccc4n3)n2)nc2ccccc12 [PDS-bio]
ΔTm on dsDNA (dsDNA): 0 °C

material recovered compared to other tested probes (genomic DNA; 200 nM, same condition): up to 30 fold | consensus peaks for both Dox-bio1 and ATAC-seq (genomic DNA): 12,896 | peaks located in open chromatin regions mapped by ATAC-seq (genomic DNA): 95% | high confidence Dox-bio1 binding sites (genomic DNA; depending on the probe concentration): around 14k
SMILES: COc1cccc2c1C(=O)c1c(O)c3c(c(O)c1C2=O)C[C@@](O)(C(=O)COC(=O)CCCC(=O)NCCOCCOCCOCCOCCNC(=O)CCCC[C@H]1SC[C@H]2NC(=O)N[C@H]21)C[C@@H]3O[C@H]1C[C@H](N)[C@H](O)[C@H](C)O1 [Dox-bio1]

SMILES: Cc1sc2c(c1C)C(c1ccc(Cl)cc1)=N[C@@H](CC(=O)NCCCNC(=O)OC1CC/C=C\CCC1)c1nnc(C)n1-2 (stereo partly shown) [JQ1-TCO]
signal averaged at BRD4 CUT&Tag high confidence loci (BRD4 [2]): close to the baseline

overlap of high confidence binding sites with G4-seq data (OQS) (DNA G-quadruplex [3]): ~89%
SMILES: NCCOc1cc(C(=O)Nc2cc(OCCN)c3ccccc3n2)nc(C(=O)Nc2cc(OCCN)c3ccccc3n2)c1 [PDS, Pyridostatin]
ΔTm on dsDNA (dsDNA): 0 °C | PDS Chemmap sites lost compared to untreated (DNA G-quadruplex [4]): ~6000 | PDS Chemmap sites lost compared to untreated (percent) (DNA G-quadruplex [4]): 60%

overlap of high confidence binding sites with G4-seq data (OQS) (DNA G-quadruplex [3]): ~88%
SMILES: C[n+]1cc(NC(=O)c2ccc3ccc4ccc(C(=O)Nc5cc6ccccc6[n+](C)c5)nc4c3n2)cc2ccccc21 [PhenDC3]
ΔTm on dsDNA (dsDNA): 0 °C

SMILES: C[n+]1cc(NC(=O)c2ccc3ccc4c(NCCCCNC(=O)CCc5cn(CCOCCOCCOCCNC(=O)CCCC[C@@H]6SC[C@@H]7NC(=O)N[C@@H]76)nn5)cc(C(=O)Nc5cc6ccccc6[n+](C)c5)nc4c3n2)cc2ccccc21 [PhenDC3-bio]
ΔTm on dsDNA (dsDNA): 0 °C
